From BindingDB's records for doi:10.3109/14756366.2013.776556 (King Fahd University of Petroleum & Minerals, 2014)
pKi: −log10 of the molar value.

Key:
[1] = molecular target: T1, 5-hydroxytryptamine receptor 1A (Homo sapiens, UniProt P08908); assay: Binding Affinity Assay; settings: pH 7.4; 37 °C
T1 sequence (P08908 whole entry): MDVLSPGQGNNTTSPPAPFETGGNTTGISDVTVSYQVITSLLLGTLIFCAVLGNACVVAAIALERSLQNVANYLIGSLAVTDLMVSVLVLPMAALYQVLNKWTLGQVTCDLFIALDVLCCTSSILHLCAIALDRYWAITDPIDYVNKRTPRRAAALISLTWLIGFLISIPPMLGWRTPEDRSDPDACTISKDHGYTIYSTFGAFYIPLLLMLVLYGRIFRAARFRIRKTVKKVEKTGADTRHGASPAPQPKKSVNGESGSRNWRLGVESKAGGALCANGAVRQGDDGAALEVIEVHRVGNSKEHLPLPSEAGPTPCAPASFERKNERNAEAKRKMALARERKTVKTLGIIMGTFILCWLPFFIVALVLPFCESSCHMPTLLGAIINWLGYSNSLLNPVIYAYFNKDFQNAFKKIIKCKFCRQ
Protocol: Human-cloned 5-HT1A serotonin receptors stably expressed in HEK293-EBNA cells (Perkin-Elmer, Waltham, MA) were radiolabeled with 1.0nM [3H]-8-OH-DPAT [Fargin et al., J. Biol. Chem., 264:[…]]. Samples containing 32 μg of membrane protein, different concentrations of each compound ranging from 0.1nM to 10 μM were incubated in a final volume of 500 μL of 50mM Tris-HCl pH 7.4, 5mM MgSO4for 120 min at 37 °C. After this incubation time, samples were filtered through Whatman GF/C glass microfiber filters presoaked in polyethylenimine 0.5% for at least 30 min prior to use. The filters were washed twice with 1mL of ice-cold buffer (50mM Tris-HCl, pH 7.4). Nonspecific binding was determined in the presence of 10 μM 5-HT. The radioactivity bound to the filters was measured by liquid scintillation using the LS6500 Multi-Purpose scintillation Counter, Beckman.

D(2) dopamine receptor = D(2) dopamine receptor (Homo sapiens, UniProt P14416); assay: Binding Affinity Assay; settings: pH 7.4; 25 °C
Protocol: The samples were incubated for 120 min at 25 °C, then the incubation was stopped by rapid filtration through Whatman GF/C glass fiber filters (presoaked in 0.5% polyethylenimine for 60 min). The filters were washed three times in 1mL of ice-cold 50mM Tris, 0.9% NaCl, pH 7.4. Nonspecific binding was determined in the presence of 10 μM haloperidol. The radioactivity bound to the filters was measured by liquid scintillation using a LS6500 Multi-Purpose scintillation Counter, Beckman.

Chain of D(2) dopamine receptor (P14416 whole entry): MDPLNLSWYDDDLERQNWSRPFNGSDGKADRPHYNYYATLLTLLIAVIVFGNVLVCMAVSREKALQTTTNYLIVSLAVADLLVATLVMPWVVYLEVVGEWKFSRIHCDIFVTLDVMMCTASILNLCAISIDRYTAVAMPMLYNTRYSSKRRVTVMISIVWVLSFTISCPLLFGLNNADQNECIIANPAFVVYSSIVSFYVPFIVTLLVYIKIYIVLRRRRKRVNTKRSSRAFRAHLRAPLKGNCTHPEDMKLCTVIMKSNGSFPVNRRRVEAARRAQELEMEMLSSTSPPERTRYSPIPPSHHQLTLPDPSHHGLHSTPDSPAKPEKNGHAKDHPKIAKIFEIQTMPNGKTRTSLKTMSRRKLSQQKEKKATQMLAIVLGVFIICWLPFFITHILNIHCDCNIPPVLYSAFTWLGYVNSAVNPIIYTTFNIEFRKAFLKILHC

Structure (SMILES)	pKi [1]	pKi (D(2) dopamine receptor)
O=c1[nH]c2cccc(N3CCN(Cc4cccc(-c5ccccc5)c4)CC3)c2o1	8.14	–
O=c1[nH]c2ccc(C3CCN(Cc4ccc(-c5ccc(F)cc5)cc4)CC3)cc2[nH]1 [5-(1-((4'-Fluorobiphenyl-4-yl)methyl)piperidin-4-yl)-1H-benzo[d]imidazol-2(3H)-one (5b)]	7.79	7.46
O=c1[nH]c2ccc(C3CCN(Cc4cncc(C5=CCCC5)c4)CC3)cc2[nH]1 [5-(1-((5-cyclopentenylpyridin-3-yl)methyl)piperidin-4-yl)-1Hbenzo[d]imidazol-2(3H)-one (5f)]	8.20	8.37
O=c1[nH]c2ccc(C3CCN(Cc4cncc(-c5ccccc5)c4)CC3)cc2[nH]1 [5-(1-((5-phenylpyridin-3-yl)methyl)piperidin-4-yl)-1H-benzo[d]imidazol-2(3H)-one (5c)]	8.17	7.73
O=c1[nH]c2ccc(N3CCN(Cc4cccc(C5=CCCC5)c4)CC3)cc2[nH]1 [5-(4-(3-cyclopentenylbenzyl)piperazin-1-yl)-1H-benzo[d]imidazol-2(3H)-one (6e)]	8.51	7.98
O=c1[nH]c2ccc(N3CCN(Cc4cncc(-c5ccc(F)cc5)c4)CC3)cc2[nH]1 [5-(4-((5-(4-fluorophenyl)pyridin-3-yl)methyl)piperazin-1-yl)-1H-benzo[d]imidazol-2(3H)-one (6d)]	7.94	7.09
O=c1[nH]c2ccc(N3CCN(Cc4cncc(C5=CCCC5)c4)CC3)cc2[nH]1 [5-(4-((5-cyclopentenylpyridin-3-yl)methyl)piperazin-1-yl)-1H-benzo[d]imidazol-2(3H)-one (6f)]	8.77	8.51
O=c1[nH]c2ccc(N3CCN(Cc4cncc(-c5ccccc5)c4)CC3)cc2[nH]1 [5-(4-((5-phenylpyridin-3-yl)methyl)piperazin-1-yl)-1H-benzo[d]imidazol-2(3H)-one (6c)]	8.28	7.90
O=c1[nH]c2ccc(N3CCN(Cc4ccc(-c5ccccc5)cc4)CC3)cc2[nH]1 [5-(4-(biphenyl-4-ylmethyl)piperazin-1-yl)-1H-benzo[d]imidazol-2(3H)-one (6a)]	7.33	7.37

More lines, now with the values ahead:

pKi [1]	pKi (D(2) dopamine receptor)	Structure (SMILES)
8.06	8.08	Fc1ccc(-c2cncc(CN3CCN(c4cccc5c4OCCO5)CC3)c2)cc1 [1-(2,3-dihydro-1,4-benzodioxin-5-yl)-4-[[5-(4-fluorophenyl)pyridin-3-yl]methyl]piperazine]
8.92	8.09	O=c1[nH]c2ccc(C3CCN(Cc4cccc(C5=CCCC5)c4)CC3)cc2[nH]1 [5-(1-(3-cyclopentenylbenzyl)piperidin-4-yl)-1H-benzo[d]imidazol-2(3H)-one (5e)]
8.03	7.61	O=c1[nH]c2ccc(C3CCN(Cc4cncc(-c5ccc(F)cc5)c4)CC3)cc2[nH]1 [5-(1-((5-(4-Fluorophenyl)pyridin-3-yl)methyl)piperidin-4-yl)-1H-benzo[d]imidazol-2(3H)-one (5d)]
7.47	7.02	O=c1[nH]c2ccc(C3CCN(Cc4ccc(-c5ccccc5)cc4)CC3)cc2[nH]1 [5-(1-(biphenyl-4-ylmethyl)piperidin-4-yl)-1H-benzo[d]imidazol-2(3H)-one (5a)]
7.56	7.20	O=c1[nH]c2ccc(N3CCN(Cc4ccc(-c5ccc(F)cc5)cc4)CC3)cc2[nH]1 [5-(4-((4'-fluorobiphenyl-4-yl)methyl)piperazin-1-yl)-1H-benzo[d]imidazol-2(3H)-one (6b)]
